Source: ChEMBL document CHEMBL4190383, “Hit discovery of Mycobacterium tuberculosis inosine 5'-monophosphate dehydrogenase, GuaB2, inhibitors” (Bioorg Med Chem Lett, 2018)
≈ marks a conversion by molar mass, not a printed value. Calls of active or inactive are those of the source. The rule behind the calls is not given here.

Tests used:
[1] = test system: Mycobacterium tuberculosis; experiment: Antimicrobial activity against Mycobacterium tuberculosis H37Rv by alamar blue assay; format: functional
Escherichia coli = experiment: Growth inhibition of Escherichia coli at 32 ug/ml; format: functional; settings: read-out: GI
[2] = test system: Mycobacterium tuberculosis; experiment: Inhibition of Mycobacterium tuberculosis GuaB2 at 50 uM
[3] = test system: Mycobacterium tuberculosis; experiment: Antimicrobial activity against Mycobacterium tuberculosis H37Rv in presence of 0.08 to 5 ng/ml anhydrotetracycline-induced guaB2 gene silencing by alamar blue assay; format: functional, organism-based
Acinetobacter baumannii = experiment: Growth inhibition of Acinetobacter baumannii at 32 ug/ml; format: functional; settings: read-out: GI
Klebsiella pneumoniae = experiment: Growth inhibition of Klebsiella pneumoniae at 32 ug/ml; format: functional; settings: read-out: GI
Candida albicans = experiment: Growth inhibition of Candida albicans at 32 ug/ml; format: functional; settings: read-out: GI
[4] = Inhibition of Mycobacterium tuberculosis GuaB2
[5] = Octanol/water partition coefficient , logP of the compound; format: physicochemical
[6] = target: Inosine-5'-monophosphate dehydrogenase 2 (Homo sapiens) (UniProt P12268); experiment: Inhibition of human IMPDH2 at 10 uM
Chain of Inosine-5'-monophosphate dehydrogenase 2 (Homo sapiens) (P12268 2-514 limits assumed): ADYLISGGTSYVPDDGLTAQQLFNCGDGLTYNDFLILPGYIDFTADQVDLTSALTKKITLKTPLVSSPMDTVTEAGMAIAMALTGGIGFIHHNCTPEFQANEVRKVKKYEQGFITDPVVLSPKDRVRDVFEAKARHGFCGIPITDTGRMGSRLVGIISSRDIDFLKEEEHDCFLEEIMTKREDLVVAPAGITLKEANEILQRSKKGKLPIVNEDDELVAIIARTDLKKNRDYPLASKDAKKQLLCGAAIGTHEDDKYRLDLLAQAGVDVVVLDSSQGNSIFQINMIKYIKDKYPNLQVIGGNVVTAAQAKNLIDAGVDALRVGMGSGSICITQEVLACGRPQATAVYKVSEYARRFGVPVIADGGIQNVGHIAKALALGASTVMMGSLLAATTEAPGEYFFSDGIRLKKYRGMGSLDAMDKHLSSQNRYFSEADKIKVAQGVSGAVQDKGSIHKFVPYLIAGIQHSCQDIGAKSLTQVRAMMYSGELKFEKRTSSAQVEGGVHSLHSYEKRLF

[7] = test system: Mycobacterium tuberculosis; experiment: Antimicrobial activity against Mycobacterium tuberculosis SRMV2.6 H37Rv by alamar blue assay; format: functional
Cryptococcus neoformans = experiment: Growth inhibition of Cryptococcus neoformans var. grubii at 32 ug/ml; format: functional; settings: read-out: GI
Staphylococcus aureus = experiment: Growth inhibition of methicillin-resistant Staphylococcus aureus at 32 ug/ml; format: functional; settings: read-out: GI
Pseudomonas aeruginosa = experiment: Growth inhibition of Pseudomonas aeruginosa at 32 ug/ml; format: functional; settings: read-out: GI

SMILES | MIC90 [1] | also measured
O=C(O)/C=C\C(=O)NCc1ccccc1 | > 100 µM | –
COc1ccc(NC(=O)Nn2c(C)nc3sccc3c2=O)cc1 | > 100 µM | –
CC1CC(NS(=O)(=O)c2ccc(NC(=O)CCC(=O)O)cc2)=NO1 (centres undefined) | > 100 µM | –
O=C(COc1cccc2ccccc12)Nc1ccc2c(c1)COC2=O | > 100 µM | –
Clc1cccc(Cn2nncc2COc2ccc3ccccc3c2)c1 | > 100 µM | –
O=C(CNc1ccc(F)cc1)Nc1ccc2c(c1)COC2=O | > 100 µM | –
Cc1ccc(CNC(=O)/C=C\C(=O)O)cc1 | > 100 µM | –
O=C1OCc2cc(NS(=O)(=O)c3ccc([N+](=O)[O-])cc3)ccc21 | > 100 µM | –
COc1cc(C(=O)/C=C/c2cc(OC)c(OC)c(OC)c2)ccc1OCC(=O)Nc1ccc2c(c1)COC2=O | > 100 µM | –
Cc1nc2sccc2c(=O)n1NC(=O)/C=C/c1ccccc1 | > 100 µM | –
O=C(O)CCCC(=O)Nc1cc(-c2ccco2)[nH]n1 | > 100 µM | –
COc1cc(NC(=O)Nn2c(C)nc3sccc3c2=O)cc(OC)c1 | > 100 µM | –
O=C(O)CNC(=O)[C@@H]1C[C@H]1c1ccccc1 | > 100 µM | –
COc1ccc2[nH]c(S(=O)(=O)Cc3ncc(C)c(OC)c3C)nc2c1 [OMEPRAZOLE SULFONE] | > 100 µM | –
CC(C(=O)Nc1ccc2c(c1)COC2=O)c1cccc(C(=O)c2ccccc2)c1 (centres undefined) | 100 µM (≈ 38.5 µg/mL) | –
Fc1ccccc1NC(=S)Nc1ccc(-c2ccccc2Cl)cn1 | > 100 µM | –
Fc1ccccc1NC(=S)Nc1ccc(-c2cccc(Cl)c2)cn1 | > 100 µM | –
Cc1nc2sccc2c(=O)n1NC(=O)Nc1ccc([N+](=O)[O-])cc1 | > 100 µM | –
COc1ccc(NC(=O)CC/C(C)=C/Cc2c(O)c3c(c(C)c2OC)COC3=O)cc1 | > 100 µM | –

SMILES | MIC90 [1] | also measured
Clc1ccc(Cn2nncc2COc2ccc3ccccc3c2)c(Cl)c1 | > 100 µM | –
N#Cc1ccc(Cn2nncc2COc2ccc3ccccc3c2)cc1 | > 100 µM | –
O=C(O)CCC(=O)NCc1ccc2c(c1)OCO2 | > 100 µM | –
CC(C(=O)Nc1ccc2c(c1)COC2=O)c1ccc(-c2ccccc2)c(F)c1 (centres undefined) | > 100 µM | –
COc1c(C)c2c(c(O)c1C/C=C(\C)CCC(=O)O)C(=O)OC2 [MYCOPHENOLIC ACID] | 50 µM (≈ 16 µg/mL) | inhibition of growth at 32 µg/mL (Escherichia coli): 2.37%; inhibition [2]: 83%; Activity [3]: Active; inhibition of growth at 32 µg/mL (Acinetobacter baumannii): 19.4%; inhibition of growth at 32 µg/mL (Klebsiella pneumoniae): 3.78%; inhibition of growth at 32 µg/mL (Candida albicans): 96.9%; IC50 [4]: 27.2 µM; logP [5]: 2.68; inhibition [6]: 99.9%; MIC90 [7]: 50 µM (≈ 16 µg/mL); inhibition of growth at 32 µg/mL (Cryptococcus neoformans): 91.4%; inhibition of growth at 32 µg/mL (Staphylococcus aureus): 52.4%; inhibition of growth at 32 µg/mL (Pseudomonas aeruginosa): 18.8%
O=C(O)COCC(=O)Nc1ccccc1C(=O)O | > 100 µM | –
COc1cccc(Cn2nncc2COc2ccc3ccccc3c2)c1 | 50 µM (≈ 17.3 µg/mL) | inhibition [2]: 52.4%; inhibition [6]: 24.9%; MIC90 [7]: > 100 µM
Cc1nnc(-c2ccc(OCc3cnnn3Cc3ccc(C#N)cc3)cc2)o1 | > 100 µM | –
COc1ccc2[nH]c(S(=O)(=O)Cc3c(C)c(OC)c(C)c[n+]3[O-])nc2c1 | > 100 µM | –
O=C(O)CCC(=O)NCC1(N2CCOCC2)CCCCCC1 | > 100 µM | –
COc1cc(/C=C/C(=O)c2cccc(OCC(=O)Nc3ccc4c(c3)COC4=O)c2)cc(OC)c1OC | > 100 µM | –
Cc1ccc2nc(NC(=O)CCC(=O)O)sc2c1 | > 100 µM | –
Cc1nnc(-c2ccc(OCc3cnnn3Cc3ccc(F)cc3)cc2)o1 | > 100 µM | –
Clc1ccc(Cn2nncc2COc2ccc3ccccc3c2)cc1 | > 100 µM | –
CC(=O)C1CCN(CC(=O)Nn2c(C)nc3sccc3c2=O)CC1 | > 100 µM | –
Cc1nnc(-c2ccc(OCc3cnnn3Cc3ccc(Cl)cc3Cl)cc2)o1 | > 100 µM | –
O=C(Cn1c(-c2ccncc2)nc2cc(Br)cnc21)Nc1cccc2ccccc12 | > 100 µM | –
Cc1nnc(-c2ccc(OCc3cnnn3Cc3ccc(-c4ccccc4)cc3)cc2)o1 | 100 µM (≈ 42.3 µg/mL) | inhibition of growth at 32 µg/mL (Escherichia coli): -7.2%; inhibition [2]: 72.6%; inhibition of growth at 32 µg/mL (Acinetobacter baumannii): -14.1%; inhibition of growth at 32 µg/mL (Klebsiella pneumoniae): 2.97%; inhibition of growth at 32 µg/mL (Candida albicans): -0.24%; logP [5]: > 4.5; inhibition [6]: 0.1%; MIC90 [7]: 100 µM (≈ 42.3 µg/mL); inhibition of growth at 32 µg/mL (Cryptococcus neoformans): -70.2%; inhibition of growth at 32 µg/mL (Staphylococcus aureus): 14%; inhibition of growth at 32 µg/mL (Pseudomonas aeruginosa): 7.93%
